According to PubChem BioAssay AID248 (DTP/NCI, 2004):
Several values for one entry are separate records, joined by “and”; a condition that tells them apart may be missing. Equal values may be shown once. Inconclusive results and toxic doses are left out. Cut-off read from the data, not from the text of the source: active = T/C of 150% or more; inactive = T/C below 125%.

Test system: L1210 leukemia ip in BDF1 mice, survival T/C
Assay: NCI In Vivo Anticancer Drug Screen. Data for tumor model L1210 Leukemia (intraperitoneal) in B6D2F1 (BDF1) mice
Details: endpoint: mean survival time, higher = longer survival
Method in brief: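 Mice bearing the transplanted tumor received compound or vehicle. Survival of the treated group was divided by that of the vehicle-treated control group to give the ratio.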

[1] = dose: 75.0 mg/kg/injection, schedule: Q01DX001 (ip), vehicle: other
[2] = dose: 150.0 mg/kg/injection, schedule: Q01DX001 (ip), vehicle: other
[3] = dose: 100.0 mg/kg/injection, schedule: Q04DX002 (ip), vehicle: Klucel (hydroxypropylcellulose) (HPC)
[4] = dose: 100.0 mg/kg/injection, schedule: Q01DX001 (ip), vehicle: other
[5] = dose: 200.0 mg/kg/injection, schedule: Q01DX001 (ip), vehicle: other
[6] = dose: 400.0 mg/kg/injection, schedule: Q01DX001 (ip), vehicle: other
[7] = dose: 100.0 mg/kg/injection, schedule: Q01DX001 (ip), vehicle: saline
[8] = dose: 200.0 mg/kg/injection, schedule: Q01DX001 (ip), vehicle: saline
[9] = dose: 400.0 mg/kg/injection, schedule: Q01DX001 (ip), vehicle: saline
[10] = dose: 100.0 mg/kg/injection, schedule: Q01DX009 (ip), vehicle: saline with Tween-80
[11] = dose: 100.0 mg/kg/injection, schedule: Q04DX003 (ip), vehicle: saline with Tween-80
[12] = dose: 200.0 mg/kg/injection, schedule: Q01DX009 (ip), vehicle: saline with Tween-80
[13] = dose: 200.0 mg/kg/injection, schedule: Q04DX003 (ip), vehicle: saline with Tween-80
[14] = dose: 400.0 mg/kg/injection, schedule: Q04DX003 (ip), vehicle: saline with Tween-80
[15] = dose: 100.0 mg/kg/injection, schedule: Q01DX009 (ip), vehicle: Klucel (hydroxypropylcellulose) (HPC)
[16] = dose: 200.0 mg/kg/injection, schedule: Q01DX009 (ip), vehicle: Klucel (hydroxypropylcellulose) (HPC)
[17] = dose: 200.0 mg/kg/injection, schedule: Q04DX002 (ip), vehicle: Klucel (hydroxypropylcellulose) (HPC)
[18] = dose: 400.0 mg/kg/injection, schedule: Q04DX002 (ip), vehicle: Klucel (hydroxypropylcellulose) (HPC)
[19] = dose: 100.0 mg/kg/injection, schedule: Q01DX001 (ip), vehicle: carboxymethylcellulose (CMC)
[20] = dose: 200.0 mg/kg/injection, schedule: Q01DX001 (ip), vehicle: carboxymethylcellulose (CMC)
[21] = dose: 400.0 mg/kg/injection, schedule: Q01DX001 (ip), vehicle: carboxymethylcellulose (CMC)
[22] = dose: 100.0 mg/kg/injection, schedule: Q04DX003 (ip), vehicle: Klucel (hydroxypropylcellulose) (HPC)
[23] = dose: 200.0 mg/kg/injection, schedule: Q04DX003 (ip), vehicle: Klucel (hydroxypropylcellulose) (HPC)
[24] = dose: 400.0 mg/kg/injection, schedule: Q04DX003 (ip), vehicle: Klucel (hydroxypropylcellulose) (HPC)
[25] = dose: 100.0 mg/kg/injection, schedule: Q04DX002 (ip), vehicle: saline with Tween-80
[26] = dose: 400.0 mg/kg/injection, schedule: Q01DX009 (ip), vehicle: Klucel (hydroxypropylcellulose) (HPC)

Measured: T/C

N#Cc1ccccc1N=NNc1ccccc1C#N
inactive: dose: 6.25 mg/kg/injection, schedule: Q01DX009 (ip), vehicle: Klucel (hydroxypropylcellulose) (HPC) 112 % of control | dose: 12.5 mg/kg/injection, schedule: Q01DX009 (ip), vehicle: Klucel (hydroxypropylcellulose) (HPC) 112 % of control | dose: 25.0 mg/kg/injection, schedule: Q01DX009 (ip), vehicle: Klucel (hydroxypropylcellulose) (HPC) 115 % of control | [1] 96 % of control | [2] 92 % of control

c1ccc(Nc2nc(Nc3ccccc3)nc(Nc3ccccc3)n2)cc1
inactive: dose: 25.0 mg/kg/injection, schedule: Q04DX002 (ip), vehicle: Klucel (hydroxypropylcellulose) (HPC) 92 % of control | dose: 50.0 mg/kg/injection, schedule: Q04DX002 (ip), vehicle: Klucel (hydroxypropylcellulose) (HPC) 92 % of control | [3] 88 % of control

CC1CC2(CCC1=O)OCCO2 (stereo unspecified)
inactive: [4] 95 % of control | [5] 95 % of control | [6] 96 % of control

O=C(CCc1ccc(O)cc1)c1c(O)cc(O)cc1O
inactive: [7] 96 % of control | [8] 94 % of control | [9] 92 % of control

CC(C)COC(C[N+](=O)[O-])C(Cl)(Cl)Cl (stereo unspecified)
inactive: [10] 98 % of control | [11] 92 % of control | [12] 89 % of control | [13] 90 % of control | [14] 92 % of control

O=C(O)C12CC3CC1C2C3
inactive: [11] 103 % of control | [13] 91 % of control | [14] 86 % of control

Nc1cccc(CCCCc2ccc(S(=O)(=O)F)cc2)c1
inactive: [7] 101 % of control | [8] 95 % of control | [9] 98 % of control

OCC1OC(n2ccc3c([Se]Cc4ccccc4)ncnc32)C(O)C1O (stereo unspecified)
inactive: dose: 0.78 mg/kg/injection, schedule: Q01DX009 (ip), vehicle: saline 101 % of control | dose: 1.56 mg/kg/injection, schedule: Q01DX009 (ip), vehicle: saline 105 % of control | dose: 3.12 mg/kg/injection, schedule: Q01DX009 (ip), vehicle: saline 109 % of control | dose: 6.25 mg/kg/injection, schedule: Q01DX009 (ip), vehicle: saline 86 % of control | dose: 12.5 mg/kg/injection, schedule: Q01DX005 (ip), vehicle: saline 100 % of control | dose: 25.0 mg/kg/injection, schedule: Q01DX005 (ip), vehicle: saline 101 % of control

Cc1ccc(OC/C=C/CS(=O)(=O)c2ccc(C)cc2)cc1
inactive: dose: 50.0 mg/kg/injection, schedule: Q01DX009 (ip), vehicle: Klucel (hydroxypropylcellulose) (HPC) 100 % of control | dose: 75.0 mg/kg/injection, schedule: Q01DX001 (ip), vehicle: Klucel (hydroxypropylcellulose) (HPC) 93 % of control | [15] 98 % of control | dose: 150.0 mg/kg/injection, schedule: Q01DX001 (ip), vehicle: Klucel (hydroxypropylcellulose) (HPC) 98 % of control | [16] 98 % of control | dose: 300.0 mg/kg/injection, schedule: Q01DX001 (ip), vehicle: Klucel (hydroxypropylcellulose) (HPC) 95 % of control

c1ccc([P+](c2ccccc2)(c2ccccc2)C2CN=NC2)cc1
inactive: dose: 10.0 mg/kg/injection, schedule: Q01DX001 (ip), vehicle: saline 103 % of control | dose: 20.0 mg/kg/injection, schedule: Q01DX001 (ip), vehicle: saline 108 % of control | dose: 40.0 mg/kg/injection, schedule: Q01DX001 (ip), vehicle: saline 112 % of control

Cc1ccc(NC(=S)N(CCC#N)C2CCCCC2)cc1C
inactive: [3] 97 % of control | [17] 90 % of control | [18] 90 % of control

CO/C(Cc1cc(O)cc(O)c1)=N\N
inactive: [11] 93 % of control | [13] 92 % of control | [14] 101 % of control

Cc1nc(N)[nH]c(=O)c1CCCNS(=O)(=O)c1ccc(N)cc1
inactive: dose: 50.0 mg/kg/injection, schedule: Q01DX001 (ip), vehicle: saline 100 % of control | [7] 97 % of control | [8] 100 % of control | [9] 94 % of control

O=C(Nc1c(Br)cc2c(c1Br)Cc1cc(Br)ccc1-2)C(Cl)Cl
inactive: [19] 98 % of control | [20] 91 % of control | [21] 98 % of control

Cc1ccccc1C1(c2ccccc2C)OC(=O)c2ccccc21
inactive: [10] 93 % of control | [12] 89 % of control | dose: 400.0 mg/kg/injection, schedule: Q01DX009 (ip), vehicle: saline with Tween-80 90 % of control

O=C(Nc1ccc(F)c([N+](=O)[O-])c1)Nc1cc([N+](=O)[O-])ccc1F
inactive: [22] 96 % of control | [23] 93 % of control | [24] 101 % of control

CCC(C)NC1=CC(=O)c2ccccc2C1=O (stereo unspecified)
inactive: dose: 100.0 mg/kg/injection, schedule: Q01DX001 (ip), vehicle: saline with Tween-80 95 % of control | dose: 200.0 mg/kg/injection, schedule: Q01DX001 (ip), vehicle: saline with Tween-80 94 % of control

CCOC(=O)C(CCC#N)(CCC(=O)OC)C(C)=O (stereo unspecified)
inactive: [25] 97 % of control | dose: 200.0 mg/kg/injection, schedule: Q04DX002 (ip), vehicle: saline with Tween-80 116 % of control | dose: 400.0 mg/kg/injection, schedule: Q04DX002 (ip), vehicle: saline with Tween-80 94 % of control

Cc1cc(=O)c(O)co1
inactive: [15] 98 % of control | [22] 101 % of control | [16] 93 % of control | [23] 101 % of control | [26] 93 % of control | [24] 101 % of control

CN=C(N)c1ccc(N=C(N)c2ccc(Cl)c(C(N)=Nc3ccc(C(N)=NC)cc3)c2)cc1
inactive: dose: 10.0 mg/kg/injection, schedule: Q01DX Z (ip), vehicle: water 96 % of control | dose: 20.0 mg/kg/injection, schedule: Q01DX Z (ip), vehicle: water 113 % of control

O=C(/C=C/c1ccccc1)NC(=S)NCc1ccco1
inactive: [15] 94 % of control and 95 % of control | [3] 97 % of control | [22] 95 % of control | [16] 92 % of control and 98 % of control | [17] 101 % of control and 114 % of control | [23] 95 % of control | [26] 94 % of control and 95 % of control | [18] 95 % of control and 102 % of control | [24] 94 % of control

O=[N+]([O-])c1ccc(S(=O)(=O)F)c(Cl)c1
inactive: [7] 98 % of control | [8] 90 % of control | [9] 96 % of control

COc1ccc(C(=O)O)c(CC#N)c1
inactive: [22] 97 % of control | [23] 87 % of control

CCC1CC2CN3CCc4c([nH]c5ccccc45)C(C(=O)OC)(C2)C13 (stereo unspecified)
inactive: [1] 96 % of control | [2] 105 % of control

S=C=NCCCCCCCCCCCCN=C=S
inactive: dose: 6.25 mg/kg/injection, schedule: Q01DX009 (ip), vehicle: saline with Tween-80 101 % of control | dose: 12.5 mg/kg/injection, schedule: Q01DX009 (ip), vehicle: saline with Tween-80 93 % of control | dose: 25.0 mg/kg/injection, schedule: Q04DX002 (ip), vehicle: saline with Tween-80 114 % of control | dose: 50.0 mg/kg/injection, schedule: Q04DX002 (ip), vehicle: saline with Tween-80 111 % of control | [25] 101 % of control

NC(=O)C1CCCC12NC(=O)NC2=O (stereo unspecified)
inactive: [15] 104 % of control | [22] 100 % of control | [16] 94 % of control | [23] 103 % of control | [26] 93 % of control | [24] 97 % of control

CCCC(Cc1cccs1)C(=O)O (stereo unspecified)
inactive: [4] 101 % of control | [5] 97 % of control | [6] 97 % of control

CN1C(=O)N(C)C2(CCCC2)C1=O
inactive: [19] 107 % of control | [20] 104 % of control | [21] 104 % of control

Oc1ccc(Nc2ccccc2)cc1
inactive: [7] 92 % of control | dose: 100.0 mg/kg/injection, schedule: Q04DX003 (ip), vehicle: saline 101 % of control | [8] 110 % of control | dose: 200.0 mg/kg/injection, schedule: Q04DX003 (ip), vehicle: saline 101 % of control | [9] 105 % of control | dose: 400.0 mg/kg/injection, schedule: Q04DX003 (ip), vehicle: saline 95 % of control
